# Source: patent publication US20230011800A1, “[…] CHIP FOR […] AND TOXICITY ON NERVE, AND USE THEREOF” (CHA UNIVERSITY INDUSTRY-ACADEMIC COOPERATION FOUNDATION, priority 2019, published 2023)
# Entries after “also recorded” stand apart in the source; their conditions may differ.
# Experiments:
# Assay type in all cases: cell-based
# [1] = system: neurons differentiated from human stem cells (hPSCs) (Neurosight-S); test: MeHg neurotoxicity on neurons cultured alone in the biomimetic nerve chip, Calcein-AM live cell imaging
# Description: Neurons differentiated from human stem cells (hPSCs) were secured through neurons (Neurosight-S) by NEXEL. A stock was thawed and injected immediately into the chip. The neurons were prepared at an appropriate concentration for injection of 15×10^4 cells/6 μL, loaded into the neuron inlet included in the nerve chip of the present invention, and injected into the neuron chamber passing through the neuron channel. The bottom of the neuron chamber was coated with Matrigel, which was three times more concentrated than usual, for stable attachment in the chip, and the neurons were cultured in Neurosight-S medium supplemented with Supplement (100×) for 3 days during which neurites can be formed.
# (§1) The injection of cells was conversely conducted. Human stem cell-derived neurons (Neurosight-S) were preferentially injected, wherein the neurons were prepared at an appropriate concentration for injection of 15×10^4 cells/6 μL, load into the neuron inlet, and injected into the neuron chamber. Human stem cell-derived astrocytes were prepared at an appropriate concentration for injection of 15×10^4 cells/6 μL, and nozzles of syringes each carrying 30 μL were connected to the astrocyte inlets, and the astrocytes were injected into the two astrocyte chambers by using a syringe pump.
# (§2) It was assessed whether neurotoxicity can be evaluated by a noticeable biomimetic nerve chip of the present invention in which an in vivo environment similar to physiological characteristics of the nervous system was constructed. First, methylmercury chloride (MeHg), a representative environmental toxic substance known to pass through the brain barrier regardless of a structure of the brain barrier and to have neurotoxicity, was selected as a toxic substance for treatment. The neurotoxicity evaluation was conducted by treating a chip having only neurons cultured and a chip having neurons and astrocytes co-cultured, with MeHg at various concentrations (0 μM, 1 μM, 5 μM, 10 μM) for 3 hours and then examining the cell response changes according to the MeHg time and concentration through real-time live cell imaging and immunocytochemistry, and then the functionality of the biomimetic nerve chip as a drug toxicity evaluation platform was assessed (FIGS. 8 to 10).
# Most of the neurons in the control group formed neurite networks while having intact cell bodies and neurites.
# The MeHg treatment concentrations were set to 1 μM, 5 μM, and 10 μM, and similarly, the viability of neurons was examined in real time through Calcein-AM.
# [2] = system: neurons co-cultured with astrocytes (human stem cell-derived); test: MeHg neurotoxicity on neurons co-cultured with astrocytes in the nerve chip (astrocyte neuroprotection), Calcein-AM and MAP2
# Description: as §1, §2
# Finally, it was examined whether there was a neuroprotective function from the neurotoxicity of MeHg depending on the presence or absence of astrocytes inside the biomimetic nerve chip. MeHg treatment was conducted under two conditions in which […] were cultured alone and neurons and astrocytes were co-cultured, and the cell viability was evaluated in real time according to the time and concentration changes by using Calcein-AM (FIGS. 10A to 10C). […]
# [3] = system: astrocytes differentiated from human stem cells (hPSCs); test: MeHg toxicity on astrocytes cultured in the nerve chip, Calcein-AM live cell imaging
# From the text: Astrocytes, differentiated from human stem cells (hPSCs), were secured by direct differentiation. Human stem cells (hPSCs) were maintained through culture and passage by using TeSr-E8 medium in a Matrigel-coated culture dish, and for differentiation into neurons, neural progenitor cells (NPCs) were first prepared. The stem cell colonies were detached using […], and then embryoid bodies (EBs) were formed using DMEM/F12 medium containing 20% knock out serum replacement, 1% nonessential amino acids, 55 μM β-mercaptoethanol, 10 μM SB431542, and 5 μM DMH1, and then again attached to a Matrigel-coated culture dish to form neural rosettes in DMEM/F12 medium containing 1% N2 supplement, […] insulin, and 20 ng/mL basic fibroblast growth factor. Only the center of the rosettes was separated using a thinly drawn Pasteur pipette, and then cultured in DMEM/F12 medium containing 1% N2 supplement, 20 ng/mL basic fibroblast growth factor, and 20 ng/mL epidermal growth factor to secure NPCs. The secured NPCs were again attached to a Matrigel-coated culture dish at a density of 2.8×10^3 cells/cm, and cultured in DMEM/F12 medium containing 1% N2 supplement, 2% vitamin A-removed B27 supplement, 10 ng/mL bone morphogenetic protein-4, 10 ng/mL ciliary neurotrophic factor, and 10 ng/mL leukemia inhibitory factor to thereby obtain finally differentiated astrocytes. […]
# as §2, with “First, methylmercury chloride (MeHg), a representative environmental toxic substance known to pass through the brain barrier regardless of a structure of the brain barrier and to have neurotoxicity, was selected as a toxic substance for treatment.” left out
# [4] = system: neurons differentiated from human stem cells (hPSCs) (Neurosight-S); test: MeHg neurotoxicity on neurons cultured alone in the nerve chip, immunostaining with Tuj1 and MAP2; conditions: 1 μM, 5 μM and 10 μM MeHg, 3 hours
# Description: as §2
# The cell types can be distinguished by morphological characteristics of cells, but Calcein-AM targets all living cells regardless of the type of cells and thus cannot clearly identify the types of cells. The present inventors re-examined whether the neurons were damaged at the same extent by MeHg, through immunostaining using Tuj1 and MAP2 antibodies targeting only neurons (FIG. 8C).
# [5] = system: astrocytes differentiated from human stem cells (hPSCs); test: MeHg toxicity on astrocytes in the nerve chip, immunostaining with GFAP and S100B; conditions: 3 hours
# Description: as §2
# On the basis of the assertion that this S100B increase is associated with CNS damage, immunostaining was performed using GFAP and S100B, which were used as markers for brain damage due to metal-induced neurotoxicity, in order to identify astrocytes and examine the response of astrocytes in the MeHg detection (FIG. 9C).
# [6] = in the presence of astrocytes, MeHg 1, 5, 10 μM, 3 hours
# [7] = as the concentration of MeHg increased (1, 5, 10 μM)
structure (smiles),measurement,setting,value
"[CH3][Hg][Cl] [MeHg, methylmercury chloride]","viability and morphology of neurons (neurites), Calcein-AM","[1]; 1 μM MeHg, after 3 hours",some neurites endured neurotoxicity of MeHg without damage to maintain the state thereof
same,"viability and morphology of neurons (neurites), Calcein-AM","[1]; 5 μM MeHg, after 3 hours","the neurites almost completely disappeared, leaving only fragmented fragments and only a form of cell bodies; also recorded: neurites disappeared and only the cell bodies remained"
same,"viability and morphology of neurons (neurites), Calcein-AM","[1]; 5 μM MeHg, until 2 hours after treatment",the neurites maintained the state thereof with deterioration little by little without any significant change
same,Calcein-AM signal of neurons over time,"[1]; 10 μM MeHg, 1-hour intervals for 3 hours",most of the Calcein-AM signals started to rapidly decrease 2 hours after MeHg treatment
same,"viability and morphology of neurons (neurites, cell bodies), Calcein-AM","[1]; 10 μM MeHg, after 3 hours",even the fluorescence signal of the remaining cell bodies was greatly reduced
same,Calcein-AM signal of neurons according to concentration,[2]; [6],maintained without any decrease
same,MAP2 signal of neurons according to concentration,[2]; [6],maintained without any decrease
same,"viability and morphological changes of neurons over time, Calcein-AM","[2]; neurons co-cultured with astrocytes, 10 μM MeHg, until 3 hours after treatment","no significant changes were observed, except for a few strands of neurites that partially disappeared"
same,"degree of morphological change of astrocytes according to concentration, Calcein-AM","[3]; MeHg 1, 5, 10 μM, 3 hours",no significant difference in the degree of morphological change due to cell aggregation regardless of the concentration
same,"cell viability of astrocytes, Calcein-AM","[3]; MeHg 1, 5, 10 μM, up to 3 hours",no decrease in cell viability was observed
same,"morphological changes of astrocytes over time, Calcein-AM","[3]; MeHg, 1-hour intervals for 3 hours",morphological changes of astrocytes due to cell aggregation were observed over time
same,"damage to neurons, immunostaining Tuj1 and MAP2",[4],the damage to cells increased as the concentration increased
same,GFAP expression signal in astrocytes,[5]; [7],the GFAP signal decreased
same,S100B expression signal in astrocytes,[5]; [7],the S100B signal increased
same,"viability of astrocytes, immunostaining","[5]; astrocytes, MeHg 1, 5, 10 μM",the viability of astrocytes was not changed
